Assay results from US12509444B2, “Compounds and methods for CD73 modulation and indications therefor” (Plexxikon Inc., priority 2019, dated 2025).

Experiments:
[1] = biological target: T1, Human CD73 (amino acid residues 27-549) (Homo sapiens, UniProt P21589); assay: CD73 enzymatic assay (luciferase-based indirect assay, CellTiter-Glo); format: biochemical; conditions: 0.4 nM CD73, 150 μM AMP, 1 hour at room temperature
T1 construct: Human CD73 (amino acid residues 27-549); His tag (N); made in house; host or cells: E. coli
T1 sequence (P21589 27-549): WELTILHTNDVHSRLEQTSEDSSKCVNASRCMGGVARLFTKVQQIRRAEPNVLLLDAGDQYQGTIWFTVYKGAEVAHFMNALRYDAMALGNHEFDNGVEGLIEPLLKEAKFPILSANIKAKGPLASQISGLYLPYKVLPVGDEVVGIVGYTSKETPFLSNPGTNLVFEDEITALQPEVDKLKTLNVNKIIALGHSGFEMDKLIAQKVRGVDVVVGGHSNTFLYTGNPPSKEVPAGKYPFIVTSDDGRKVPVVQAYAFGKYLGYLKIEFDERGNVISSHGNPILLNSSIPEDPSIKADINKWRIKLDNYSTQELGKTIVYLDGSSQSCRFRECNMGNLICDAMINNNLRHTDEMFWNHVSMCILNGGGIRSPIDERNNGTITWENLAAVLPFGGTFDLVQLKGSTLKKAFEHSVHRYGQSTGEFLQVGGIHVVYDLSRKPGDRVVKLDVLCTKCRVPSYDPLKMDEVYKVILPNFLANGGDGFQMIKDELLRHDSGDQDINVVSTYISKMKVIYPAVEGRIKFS
Procedure, shortened: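 His-tagged human CD73 (27-549) from E. coli, 0.4 nM, with 150 μM AMP in 50 mM HEPES pH 7.4, 0.01% Tween 20; 1 h at room temperature. AMP remaining read by CellTiter-Glo 2.0 luminescence with 1 μM final ATP after 30 min. IC50 from nonlinear regression of % inhibition.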

human CD73 = biological target: T2, human CD73 (Homo sapiens, UniProt P21589); assay: Inhibitor activity against CD73 in cell based assay (CD73 expressing CHO-K1 cells); conditions: CHO-K1 cells expressing human CD73, 150 μM AMP, 4 hours of incubation; read-out: CHO-K1 CELL VARIANT: CD73 IC50
T2 construct: expressed in transfected cells
T2 sequence (P21589 27-549): T1 sequence (P21589 27-549)
Procedure, shortened: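 Stably transfected CHO-K1 cells expressing human CD73 (1×10^4/well) incubated 4 h with compound (8-point 1:3 titration, top 10 μM final, 0.2% DMSO) and 150 μM AMP. Residual AMP in supernatant measured by CellTiter-Glo luminescence with 1 μM ATP after 30 min at room temperature; IC50 by nonlinear regression of percent inhibition vs high/low controls.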

IC50 [1] [µM] | IC50 (human CD73) [µM] | SMILES
0.001 to 10 | 0.001 to 10 | CC1CCCC1NC(=O)O[C@@H]1CCN(c2cnn(CCO)c(=O)c2Cl)C1 (stereo partly drawn) [P-0450, (R)-1-(5-chloro-1-(2-hydroxyethyl)-6-oxo-1,6-dihydropyridazin-4-yl)pyrrolidin-3-yl (2-methylcyclopentyl)carbamate]
0.001 to 10 | 10 to 100 | O=C(N[C@H]1CCC[C@H]1O)O[C@@H]1CCN(c2cn[nH]c(=O)c2Cl)C1 [P-0455, (R)-1-(5-chloro-6-oxo-1,6-dihydropyridazin-4-yl)pyrrolidin-3-yl ((1S,2R)-2-hydroxycyclopentyl)carbamate]
0.001 to 10 | 0.001 to 10 | O=C(NC1CCCC1=O)O[C@@H]1CCN(c2cn[nH]c(=O)c2Cl)C1 (stereo partly drawn) [P-0461, (R)-1-(5-chloro-6-oxo-1,6-dihydropyridazin-4-yl)pyrrolidin-3-yl (2-oxocyclopentyl)carbamate]
0.001 to 10 | 0.001 to 10 | O=C(NC1CCN(C(=O)C2(c3ccccc3)CC2)CC1)O[C@@H]1CCN(c2cn[nH]c(=O)c2Cl)C1 [P-0464, (R)-1-(5-chloro-6-oxo-1,6-dihydropyridazin-4-yl)pyrrolidin-3-yl (1-(1-phenylcyclopropane-1-carbonyl)piperidin-4-yl)carbamate]
0.001 to 10 | 0.001 to 10 | O=C(NC1CCN(C(=O)C2(c3cccc(Br)c3)CC2)CC1)O[C@@H]1CCN(c2cn[nH]c(=O)c2Cl)C1 [P-0465, (R)-1-(5-chloro-6-oxo-1,6-dihydropyridazin-4-yl)pyrrolidin-3-yl (1-(1-(3-bromophenyl)cyclopropane-1-carbonyl)piperidin-4-yl)carbamate]
0.001 to 10 | 0.001 to 10 | NCCn1ncc(N2CC[C@@H](OC(=O)N[C@@H]3CCC(F)(F)C3)C2)c(Cl)c1=O [P-0468, (R)-1-(1-(2-aminoethyl)-5-chloro-6-oxo-1,6-dihydropyridazin-4-yl)pyrrolidin-3-yl ((R)-3,3-difluorocyclopentyl)carbamate]
0.001 to 10 | 0.001 to 10 | O=C(N[C@H]1CCC[C@@H]1O)O[C@@H]1CCN(c2cn[nH]c(=O)c2Cl)C1 [P-0471, (R)-1-(5-chloro-6-oxo-1,6-dihydropyridazin-4-yl)pyrrolidin-3-yl ((1S,2S)-2-hydroxycyclopentyl)carbamate]
0.001 to 10 | 0.001 to 10 | CC(C)(C(=O)N1CCC(NC(=O)O[C@@H]2CCN(c3cn[nH]c(=O)c3Cl)C2)CC1)c1ccc(F)cc1 [P-0472, (R)-1-(5-chloro-6-oxo-1,6-dihydropyridazin-4-yl)pyrrolidin-3-yl (1-(2-(4-fluorophenyl)-2-methylpropanoyl)piperidin-4-yl)carbamate]
0.001 to 10 | 0.001 to 10 | N#Cc1c(N2CC[C@@H](OC(=O)NC3CCCCC3)C2)cnn(CCO)c1=O [P-0473, (R)-1-(5-cyano-1-(2-hydroxyethyl)-6-oxo-1,6-dihydropyridazin-4-yl)pyrrolidin-3-yl cyclohexylcarbamate]

The remaining lines, values behind:

SMILES | IC50 [1] [µM] | IC50 (human CD73) [µM]
O=C(NC12CCC(F)(CC1)C2)O[C@@H]1CCN(c2cn[nH]c(=O)c2Cl)C1 [P-0448, (R)-1-(5-chloro-6-oxo-1,6-dihydropyridazin-4-yl)pyrrolidin-3-yl (4-fluorobicyclo[2.2.1]heptan-1-yl)carbamate] | 0.001 to 10 | 0.001 to 10
O=C(NC1CC2CC2C1)O[C@@H]1CCN(c2cnn(CCO)c(=O)c2Cl)C1 (stereo partly drawn) [P-0449, (R)-1-(5-chloro-1-(2-hydroxyethyl)-6-oxo-1,6-dihydropyridazin-4-yl)pyrrolidin-3-yl bicyclo[3.1.0]hexan-3-ylcarbamate] | 0.001 to 10 | 0.001 to 10
O=C(NC1CC2CCC1O2)O[C@@H]1CCN(c2cnn(CCO)c(=O)c2Cl)C1 (stereo partly drawn) [P-0451, (R)-1-(5-chloro-1-(2-hydroxyethyl)-6-oxo-1,6-dihydropyridazin-4-yl)pyrrolidin-3-yl (7-oxabicyclo[2.2.1]heptan-2-yl)carbamate] | 0.001 to 10 | 0.001 to 10
CC1(NC(=O)O[C@@H]2CCN(c3cnn(CCO)c(=O)c3Cl)C2)CCCC1 [P-0452, (R)-1-(5-chloro-1-(2-hydroxyethyl)-6-oxo-1,6-dihydropyridazin-4-yl)pyrrolidin-3-yl (1-methylcyclopentyl)carbamate] | 0.001 to 10 | 0.001 to 10
O=C(NC1CC2C(C1)C2(F)F)O[C@@H]1CCN(c2cnn(CCO)c(=O)c2Cl)C1 (stereo partly drawn) [P-0453, (R)-1-(5-chloro-1-(2-hydroxyethyl)-6-oxo-1,6-dihydropyridazin-4-yl)pyrrolidin-3-yl (6,6-difluorobicyclo[3.1.0]hexan-3-yl)carbamate] | 0.001 to 10 | 0.001 to 10
O=C(N[C@@H]1CCC(F)(F)C1)O[C@@H]1CCN(c2cn[nH]c(=O)c2Cl)C1 [P-0454, (R)-1-(5-chloro-6-oxo-1,6-dihydropyridazin-4-yl)pyrrolidin-3-yl ((R)-3,3-difluorocyclopentyl)carbamate] | 0.001 to 10 | 0.001 to 10
CCOC(=O)[C@@H]1CCC[C@H]1NC(=O)O[C@@H]1CCN(c2cn[nH]c(=O)c2Cl)C1 [P-0456, ethyl (1R,2R)-2-(((((R)-1-(5-chloro-6-oxo-1,6-dihydropyridazin-4-yl)pyrrolidin-3-yl)oxy)carbonyl)amino) cyclopentane-1-carboxylate] | 0.001 to 10 | 0.001 to 10
O=C(N[C@@H]1CC[C@@H](O)C1)O[C@@H]1CCN(c2cn[nH]c(=O)c2Cl)C1 [P-0457, (R)-1-(5-chloro-6-oxo-1,6-dihydropyridazin-4-yl)pyrrolidin-3-yl ((1R,3R)-3-hydroxycyclopentyl)carbamate] | 0.001 to 10 | 0.001 to 10
O=C(N[C@H]1CC[C@H](O)C1)O[C@@H]1CCN(c2cn[nH]c(=O)c2Cl)C1 [P-0458, (R)-1-(5-chloro-6-oxo-1,6-dihydropyridazin-4-yl)pyrrolidin-3-yl ((1S,3S)-3-hydroxycyclopentyl)carbamate] | 0.001 to 10 | 0.001 to 10
O=C(N[C@H]1CC[C@@H](O)C1)O[C@@H]1CCN(c2cn[nH]c(=O)c2Cl)C1 [P-0459, (R)-1-(5-chloro-6-oxo-1,6-dihydropyridazin-4-yl)pyrrolidin-3-yl ((1S,3R)-3-hydroxycyclopentyl)carbamate] | 0.001 to 10 | 0.001 to 10
O=C(N[C@@H]1CC[C@H](O)C1)O[C@@H]1CCN(c2cn[nH]c(=O)c2Cl)C1 [P-0460, (R)-1-(5-chloro-6-oxo-1,6-dihydropyridazin-4-yl)pyrrolidin-3-yl ((1R,3S)-3-hydroxycyclopentyl)carbamate] | 0.001 to 10 | 0.001 to 10
O=C(NC1CCCC1)O[C@H]1CN(c2cn[nH]c(=O)c2Cl)C[C@@H]1F [P-0462, (3S,4S)-1-(5-chloro-6-oxo-1,6-dihydropyridazin-4-yl)-4-fluoropyrrolidin-3-yl cyclopentylcarbamate] | 0.001 to 10 | 0.001 to 10
O=C(NC1CCC(F)(F)CC1)O[C@H]1CN(c2cn[nH]c(=O)c2Cl)C[C@@H]1F [P-0463, (3S,4S)-1-(5-chloro-6-oxo-1,6-dihydropyridazin-4-yl)-4-fluoropyrrolidin-3-yl (4,4-difluorocyclohexyl)carbamate] | 0.001 to 10 | 0.001 to 10
Cc1noc(C)c1CC(=O)N1CCC(NC(=O)O[C@@H]2CCN(c3cn[nH]c(=O)c3Cl)C2)CC1 [P-0466, (R)-1-(5-chloro-6-oxo-1,6-dihydropyridazin-4-yl)pyrrolidin-3-yl (1-(2-(3,5-dimethylisoxazol-4-yl)acetyl)piperidin-4-yl)carbamate] | 0.001 to 10 | 0.001 to 10
O=C(N[C@@H]1CCC(F)(F)C1)O[C@@H]1CCN(c2cnn(CCO)c(=O)c2Cl)C1 [P-0467, (R)-1-(5-chloro-1-(2-hydroxyethyl)-6-oxo-1,6-dihydropyridazin-4-yl)pyrrolidin-3-yl ((R)-3,3-difluorocyclopentyl)carbamate] | 0.001 to 10 | 0.001 to 10
O=C(N[C@@H]1CCC[C@H]1C(=O)O)O[C@@H]1CCN(c2cn[nH]c(=O)c2Cl)C1 [P-0469, (1R,2R)-2-(((((R)-1-(5-chloro-6-oxo-1,6-dihydropyridazin-4-yl)pyrrolidin-3-yl)oxy)carbonyl)amino) cyclopentane-1-carboxylic acid] | 0.001 to 10 | 0.001 to 10
O=C(NC1CCC(F)(F)CC1)O[C@H]1CN(c2cnn(CCO)c(=O)c2Cl)C[C@@H]1F [P-0474, (3S,4S)-1-(5-chloro-1-(2-hydroxyethyl)-6-oxo-1,6-dihydropyridazin-4-yl)-4-fluoropyrrolidin-3-yl (4,4-difluorocyclohexyl)carbamate] | 0.001 to 10 | 0.001 to 10
